The record followed here is US12509459B2, “Inhibitors of NLRP3 inflammasome” (BioAge Labs, Inc., priority 2024, dated 2025).

In general, IC50 refers to the concentration that gives 50% inhibition. Low readings indicate higher potency, high ones lower potency.

Chain of NLRP3 (Q96P20 whole entry): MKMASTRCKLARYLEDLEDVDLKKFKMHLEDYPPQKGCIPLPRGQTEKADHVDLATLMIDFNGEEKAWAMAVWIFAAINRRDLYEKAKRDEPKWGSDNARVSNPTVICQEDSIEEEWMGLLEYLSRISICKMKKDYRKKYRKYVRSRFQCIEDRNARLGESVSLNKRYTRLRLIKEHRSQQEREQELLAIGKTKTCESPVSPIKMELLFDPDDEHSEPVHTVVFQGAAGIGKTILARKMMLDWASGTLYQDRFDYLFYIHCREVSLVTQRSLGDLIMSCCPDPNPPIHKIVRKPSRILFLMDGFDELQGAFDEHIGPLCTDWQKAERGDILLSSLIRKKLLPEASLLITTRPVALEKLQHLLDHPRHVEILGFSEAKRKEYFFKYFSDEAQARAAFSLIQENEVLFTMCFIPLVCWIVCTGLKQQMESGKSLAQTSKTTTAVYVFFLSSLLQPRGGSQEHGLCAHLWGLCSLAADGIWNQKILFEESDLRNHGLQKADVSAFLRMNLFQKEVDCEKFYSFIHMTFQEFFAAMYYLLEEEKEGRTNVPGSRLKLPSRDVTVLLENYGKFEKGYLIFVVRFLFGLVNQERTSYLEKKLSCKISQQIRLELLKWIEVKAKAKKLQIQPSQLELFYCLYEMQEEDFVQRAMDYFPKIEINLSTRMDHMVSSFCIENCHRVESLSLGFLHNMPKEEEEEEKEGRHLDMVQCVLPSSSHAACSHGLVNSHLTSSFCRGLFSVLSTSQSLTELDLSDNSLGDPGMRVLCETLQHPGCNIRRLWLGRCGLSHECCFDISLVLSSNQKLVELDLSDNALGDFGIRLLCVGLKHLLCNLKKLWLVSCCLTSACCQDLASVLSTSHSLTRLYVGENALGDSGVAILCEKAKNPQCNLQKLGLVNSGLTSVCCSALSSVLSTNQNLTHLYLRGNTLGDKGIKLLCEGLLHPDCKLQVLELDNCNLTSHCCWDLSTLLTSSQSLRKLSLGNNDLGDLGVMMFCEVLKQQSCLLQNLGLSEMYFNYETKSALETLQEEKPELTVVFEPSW

This assay addresses NLRP3 (Homo sapiens, UniProt Q96P20). The assay can be described thus: THP-1 cell-based NLRP3 activation assay. Particulars: PMA-differentiated THP-1 cells, LPS 100 ng/mL then 10 μM nigericin. Further details: endogenous in cells; host or cells: THP-1 cells (PMA-differentiated, LPS-primed, nigericin-stimulated). The method, boiled down:
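THP-1 cells were PMA-differentiated (20 nM, 24 h or 500 nM, 3 h), primed with 100 ng/mL LPS for 3 h, then given compound in Opti-Mem for 30 min before 10 μM nigericin for 1 h. Supernatants assayed; viability of adherent cells by CellTiter-Glo.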
`CCOc1cc(C(=O)N(C)[C@H](CCN(CCF)CCF)c2cncc3cn[nH]c23)ccc1-c1cccc(F)c1` [Compound 064] showed an IC50 of less than 100 nM. Consider `CCOc1cc(C(=O)N(C)[C@@H](c2cncc3cn[nH]c23)C2CNC2)ccc1-c1cccc(C)c1` [Compound 168], for which the IC50 is less than 100 nM. Next, `CCOc1cc(C(=O)N(C)[C@H](c2cccc3cn[nH]c23)C2CN(C)C2)ccc1-c1cccc(Cl)c1` [Compound 283]: less than 100 nM; `CCOc1cc(C(=O)N(C)[C@H](c2cncc3cn[nH]c23)[C@@H]2CCNC2)ccc1-c1ccccc1` [Compound 154]: less than 100 nM. Next, `CCOc1cc(C(=O)N(C)[C@H](CCNC(=O)CC)c2cncc3cn[nH]c23)ccc1-c1cccc(F)c1` [Compound 147]: less than 100 nM; `CCOc1cc(C(=O)N(C)[C@H](CC[N+](C)(C)[O-])c2cncc3cn[nH]c23)ccc1-c1cccc(C)c1` [Compound 164]: less than 100 nM; `CCOc1cc(C(=O)N(Cc2ccc(C)c3cn[nH]c23)[C@H]2C[C@@H](N(C)C)C2)ccc1-c1cccc(Cl)c1` [Compound 285]: less than 100 nM. The same measure for `CCOc1cc(C(=O)N(C)[C@@H](c2cncc3cn[nH]c23)[C@@H]2CCN(C)C2)ccc1-c1ccccc1` [Compound 160]: less than 100 nM; for `CCOc1cc(C(=O)N(C)[C@H](CCN(C)CCO)c2cncc3cn[nH]c23)ccc1-c1cccc(Cl)c1` [Compound 230]: less than 100 nM.

Take `CCOc1cc(C(=O)N(C)[C@H](c2cncc3cn[nH]c23)C2CNC2)ccc1-c1cccc(F)c1` [Compound 092]: the IC50 lay within 100 to 500 nM. With `CCOc1cc(C(=O)N(C)[C@H](CCN(C)CCCF)c2cncc3cn[nH]c23)ccc1-c1ccccc1` [Compound 138], the IC50 is less than 100 nM.

For the molecule `CCOc1cc(C(=O)N(Cc2cccc3cn[nH]c23)[C@H]2C[C@@H](N)C2)ccc1-c1cccc(C#N)c1` [Compound 292], the IC50 was less than 100 nM.

In turn, `CCOc1cc(C(=O)N(C)[C@H](CCN(C)C)c2cnc(C)c3cn[nH]c23)ccc1-c1cccc(F)c1` [Compound 075] yielded an IC50 of less than 100 nM.

As for `CCOc1cc(C(=O)N(C)[C@H](CO)c2cnc(C)c3cn[nH]c23)ccc1-c1cc(F)cc(F)c1` [Compound 018], the IC50 is less than 100 nM. As for `CCOc1cc(C(=O)N(CC(C)(C)O)C(C)c2cnc(C)c3cn[nH]c23)ccc1-c1cccc(F)c1` (stereo not shown) [Compound 062], the IC50 was less than 100 nM. Next, `CCOc1cc(C(=O)N(C)[C@H](c2cncc3cn[nH]c23)C2CN(CC)C2)ccc1-c1ccccc1` [Compound 134]: 1000 to 15000 nM; `CCOc1cc(C(=O)N(Cc2cccc3cn[nH]c23)[C@H]2C[C@@H](N(C)C)C2)ccc1-c1cccc(C#N)c1` [Compound 293]: less than 100 nM; `CCOc1cc(C(=O)N(C)[C@H](c2cncc3cn[nH]c23)C2CN(CC)C2)ccc1-c1cccc(Cl)c1` [Compound 131]: less than 100 nM.

Turning to `CCOc1cc(C(=O)N(C)C(CCN(C)C)c2cccc3cn[nH]c23)ccc1-c1ccccc1` (stereo not shown) [Compound 135], the IC50 is less than 100 nM.

On to `CCOc1cc(C(=O)N(C)[C@@H](c2cncc3cn[nH]c23)C2CNC2)ccc1-c1cccc(F)c1` [Compound 097], for which the IC50 is less than 100 nM. Next, `CCOc1cc(C(=O)N(C)[C@H](c2cncc3cn[nH]c23)C2CNC2)ccc1-c1ccccc1` [Compound 151]: less than 100 nM. Next, `CCOc1cc(C(=O)N(Cc2cncc3cn[nH]c23)[C@H]2C[C@@H](CN(C)C)C2)ccc1-c1cccc(F)c1` [Compound 249]: less than 100 nM. The same measure for `CCOc1cc(C(=O)N(C)[C@H](CCN)c2cncc3cn[nH]c23)ccc1-c1cccc(F)c1` [Compound 038]: less than 100 nM. Molecule `CCOc1cc(C(=O)N(C)[C@H](CCN(C)C)c2cnc(C)c3cn[nH]c23)ccc1-c1cc(Cl)cc(Cl)c1` [Compound 083] yielded an IC50 of less than 100 nM. With `CCOc1cc(C(=O)N(C)[C@H](CCN(C)C)c2cncc3cn[nH]c23)ccc1-c1cccc(Cl)c1` [Compound 098], the IC50 is less than 100 nM. The same measure for `CCOc1cc(C(=O)N(C)[C@@H](c2cncc3cn[nH]c23)C2CNC2)ccc1-c1cccc(Cl)c1` [Compound 181]: less than 100 nM.

As for `CCOc1cc(C(=O)N(C)[C@H](CC[N+](C)(C)[O-])c2cncc3cn[nH]c23)ccc1-c1ccccc1` [Compound 166], the IC50 is less than 100 nM. Take `CN(C(=O)c1ccc(-c2cccc(Cl)c2)c(OC2CC2)c1)[C@H](CO)c1cncc2cn[nH]c12` [Compound 006, (S)-3′-chloro-2-cyclopropoxy-N-(2-hydroxy-1-(1H-pyrazolo[4,3-c]pyridin-7-yl)ethyl)-N-methyl-[1,1′-biphenyl]-4-carboxamide]: the IC50 is less than 100 nM. Next, `Cc1ncc([C@H](CCO)N(C)C(=O)c2ccc(-c3cccc(F)c3)c(OC3CC3)c2)c2[nH]ncc12` [Compound 031]: more than 15000 nM; `CCOc1cc(C(=O)N(C)[C@@H](CN(C)C)c2cccc3cn[nH]c23)ccc1-c1cccc(Cl)c1` [Compound 221]: less than 100 nM.

The molecule `CCOc1cc(C(=O)N(C)[C@H](CCN(C)C)c2cncc3cn[nH]c23)ccc1-c1cccc(C)c1` [Compound 091] yielded an IC50 of less than 100 nM. `CCOc1cc(C(=O)N(C)[C@H](CCN(C)CCF)c2cncc3cn[nH]c23)ccc1-c1cccc(F)c1` [Compound 095] gave an IC50 of less than 100 nM.

With `CCOc1cc(C(=O)N(C)[C@@H](c2cncc3cn[nH]c23)C2CN(C)C2)ccc1-c1cccc(C#N)c1` [Compound 143], the IC50 was less than 100 nM. Next, `CN(C(=O)c1ccc(-c2cccc(Cl)c2)c(OC2CC2)c1)[C@@H](CCO)c1cncc2cn[nH]c12` [Compound 012]: 100 to 500 nM. Next, `CCOc1cc(C(=O)N(C)[C@H](CN(CC)CC)c2cccc3cn[nH]c23)ccc1-c1cccc(F)c1` [Compound 260]: 1000 to 15000 nM; `CCOc1cc(C(=O)N(C)[C@H](CCNC)c2cccc3cn[nH]c23)ccc1-c1cccc(Cl)c1` [Compound 233]: less than 100 nM; `CCOc1cc(C(=O)N(C)[C@@H](CN(C)CC)c2cccc3cn[nH]c23)ccc1-c1cccc(F)c1` [Compound 259]: less than 100 nM.

`CCOc1cc(C(=O)N(Cc2cncc3cn[nH]c23)[C@H]2CC[C@@H]2N(C)C)ccc1-c1cccc(Cl)c1` [Compound 288] displayed an IC50 of 100 to 500 nM. In turn, `CCOc1cc(CN(CCN(CC)CC)Cc2cncc3cn[nH]c23)ccc1-c1cccc(F)c1` [Compound 120] had an IC50 of less than 100 nM.

`CN(C(=O)c1ccc(-c2cccc(Cl)c2)c(OC2CC2)c1)[C@H](CCN1CCC1)c1cncc2cn[nH]c12` [Compound 281] showed an IC50 of 1000 to 15000 nM. Next, `CCOc1cc(C(=O)N(C)[C@H](CCNC)c2cncc3cn[nH]c23)ccc1-c1cccc(F)c1` [Compound 039]: 1000 to 15000 nM; `CCOc1cc(C(=O)N(C[C@@H](C)O)[C@H](C)c2cnc(C)c3cn[nH]c23)ccc1-c1cccc(F)c1` [Compound 058]: less than 100 nM; `CCOc1cc(C(=O)N(C)[C@H](c2cnc(C)c3cn[nH]c23)C2CNC2)ccc1-c1cccc(F)c1` [Compound 072]: less than 100 nM. `CN(C)CC[C@H](c1cncc2cn[nH]c12)N(C)C(=O)c1ccc(-c2cccc(C#N)c2)c(OC2CC2)c1` [Compound 149] had an IC50 of less than 100 nM.

Turning to `CCOc1cc(C(=O)N(C)[C@@H](c2cncc3cn[nH]c23)C2CN(C)C2)ccc1-c1ccccc1` [Compound 178], the IC50 was less than 100 nM.

Regarding `CCOc1cc(C(=O)N(C)[C@@H](c2cncc3cn[nH]c23)C2CN(CC)C2)ccc1-c1ccccc1` [Compound 177], the IC50 is less than 100 nM. The same measure for `CCOc1cc(C(=O)N(C)[C@@H](c2cnc(C)c3cn[nH]c23)C2CNC2)ccc1-c1cccc(F)c1` [Compound 078]: less than 100 nM; for `CCOc1cc(C(=O)N(Cc2cnc(C)c3cn[nH]c23)[C@@H]2CC[C@H]2O)ccc1-c1cccc(F)c1` [Compound 057]: 100 to 500 nM; for `CCOc1cc(C(=O)N(C)C(CN2CC(O)C2)c2cncc3cn[nH]c23)ccc1-c1cccc(F)c1` (stereo not shown) [Compound 246]: less than 100 nM. `CCOc1cc(C(=O)N(C)[C@H](CN2CCCC2)c2cncc3cn[nH]c23)ccc1-c1cccc(F)c1` [Compound 129] came in with an IC50 of 500 to 1000 nM. Next, `CCOc1cc(C(=O)N(C)[C@H](CCNC)c2cncc3cn[nH]c23)ccc1-c1cccc(Cl)c1` [Compound 228]: less than 100 nM; `CCOc1cc(C(=O)N(CCN2CCCC(F)(F)C2)Cc2cncc3cn[nH]c23)ccc1-c1cccc(F)c1` [Compound 113]: less than 100 nM.

Turning to `CCOc1cc(C(=O)N(C)[C@H](c2cncc3cn[nH]c23)C2CN(C)C2)ccc1-c1cccc(Cl)c1` [Compound 148], the IC50 was less than 100 nM. In turn, `CCOc1cc(C(=O)N(C)[C@H](COC)c2cncc3cn[nH]c23)ccc1-c1cccc(F)c1` [Compound 013] displayed an IC50 of less than 100 nM. The same measure for `CCOc1cc(C(=S)N(C)[C@H](CCN(C)C)c2cncc3cn[nH]c23)ccc1-c1cccc(F)c1` [Compound 224]: less than 100 nM; for `CCOc1cc(C(=O)N(CCO)Cc2cnc(N)c3cn[nH]c23)ccc1-c1cccc(F)c1` [Compound 047]: 100 to 500 nM; for `CCOc1cc(C(=O)N(CCO)Cc2cnc(NC)c3cn[nH]c23)ccc1-c1cccc(F)c1` [Compound 048]: less than 100 nM. The same measure for `CCOc1cc(C(=O)N(C)[C@H](CO)c2cnc(C)c3cn[nH]c23)ccc1-c1ccccc1` [Compound 020]: 100 to 500 nM; for `CCOc1cc(C(=O)N(C)[C@@H](CCO)c2cnc(C)c3cn[nH]c23)ccc1-c1cccc(Cl)c1` [Compound 029]: less than 100 nM. Next, `CCOc1cc(C(=O)N(C)C(CN(C)C)c2cncc3cn[nH]c23)ccc1-c1ccccc1` (stereo not shown) [Compound 226]: 100 to 500 nM; `CCOc1cc(C(=O)N(C)[C@H](CC[N+](C)(C)[O-])c2cccc3cn[nH]c23)ccc1-c1cccc(F)c1` [Compound 227]: less than 100 nM.
